Results published in patent US20250313565A1, “NEW INDAZOLE DERIVATIVES” (Hoffmann-La Roche Inc., priority 2022, published 2025).

Target: T1, EGFR LRCS (BaF3-LRCS cell line) (Homo sapiens, UniProt P00533, C797S/L858R)
T1 construct: host or cells: BaF3-LRCS cell line (kept under puromycin selection)
Assay: HTRF Phospho EGFR LRCS assay (cellular)
Type: cell-based
Conditions: BaF3-LRCS cells, 4 hours incubation, Phospho-EGFR HTRF readout
Method: HTRF Phospho EGFR LRCS assay (cellular)
BaF3-LRCS cell line were obtained from Crownbio (San Diego, CA, USA). Cells were maintained at 37° C., 5% C02 in RPMI ATCC (Gibco 31870)+2 mM Glutamine+0.5 μg/ml Puromycin supplemented with 10% fetal bovine serum (FBS) (Gibco).
Cells are transferred as above to Greiner Bio-One, Nr. 784-08 micro-titerplate at 20000 cells/well in 12.5 μl of growth medium/well after the plates had been pre-filled with 12.5 nl of DMSO solutions of the to be tested compounds (in dose response) or DMSO only. After spinning the plates at 300×g for 30 seconds the cells were incubated for 4 hours at 37 C, 5% CO2, 95% humidity. The cells were lysed by adding to the compound mix 4 µl/well of the supplemented lysis buffer (Cis-bio, Phospho-EGFR HTRF kit, 64EG1PEH), followed by incubation for 30 min at room temperature with shaking (400 rpm). The plates were then frozen and stored overnight at −80° C. On the next day and after thawing the plates, 4 μl of a mixture of anti-Phospho-EGFR Cryptate and of anti-Phospho-EGFR-d2 antibody solutions prepared in the supplied detection buffer was added to each well. The lidded plates were then incubated for 4 h at room temperature before reading the fluorescence emission at 616 and 665 nm using an Envision reader (Perkin Elmer). Data was analyzed in similar fashion as above using the normalized ratio of the 665 to 616 signals multiplied by 10000.

T1 sequence (P00533 25-1210 C797S/L858R): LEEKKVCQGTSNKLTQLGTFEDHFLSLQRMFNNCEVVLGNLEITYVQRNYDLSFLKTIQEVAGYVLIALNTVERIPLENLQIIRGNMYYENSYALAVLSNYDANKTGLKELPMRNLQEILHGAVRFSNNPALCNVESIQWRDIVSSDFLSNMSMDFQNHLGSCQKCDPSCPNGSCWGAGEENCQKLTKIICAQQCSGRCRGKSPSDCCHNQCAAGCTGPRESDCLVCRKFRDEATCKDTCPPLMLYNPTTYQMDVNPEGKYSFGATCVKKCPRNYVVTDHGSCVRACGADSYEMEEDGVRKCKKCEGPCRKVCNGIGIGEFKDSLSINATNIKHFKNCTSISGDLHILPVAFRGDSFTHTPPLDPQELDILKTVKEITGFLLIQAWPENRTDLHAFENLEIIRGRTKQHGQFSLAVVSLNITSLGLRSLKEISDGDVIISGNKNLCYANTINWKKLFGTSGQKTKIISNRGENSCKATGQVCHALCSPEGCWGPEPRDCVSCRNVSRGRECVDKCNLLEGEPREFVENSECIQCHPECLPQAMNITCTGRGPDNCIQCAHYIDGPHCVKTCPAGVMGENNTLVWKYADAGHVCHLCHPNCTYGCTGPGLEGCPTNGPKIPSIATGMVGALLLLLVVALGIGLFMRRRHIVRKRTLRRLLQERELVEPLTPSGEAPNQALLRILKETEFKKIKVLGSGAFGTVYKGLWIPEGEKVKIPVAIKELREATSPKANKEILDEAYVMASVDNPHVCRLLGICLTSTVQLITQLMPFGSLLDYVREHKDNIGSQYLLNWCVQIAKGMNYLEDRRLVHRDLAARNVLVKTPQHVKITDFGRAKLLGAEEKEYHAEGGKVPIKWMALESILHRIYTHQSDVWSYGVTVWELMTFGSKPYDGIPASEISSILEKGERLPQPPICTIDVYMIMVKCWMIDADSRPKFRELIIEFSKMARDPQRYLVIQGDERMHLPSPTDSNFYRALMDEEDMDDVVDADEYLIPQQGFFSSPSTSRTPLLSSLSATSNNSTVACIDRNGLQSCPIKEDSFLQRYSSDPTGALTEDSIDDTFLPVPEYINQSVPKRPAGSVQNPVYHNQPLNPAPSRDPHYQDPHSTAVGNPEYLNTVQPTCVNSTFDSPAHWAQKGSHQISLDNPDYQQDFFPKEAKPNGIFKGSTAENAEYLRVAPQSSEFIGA

IC50	SMILES
45 nM	Cc1c(-c2ccc(N3CCOCC3)cc2)cc(C(F)(F)F)c2cn(C(C(=O)Nc3nccs3)c3ncn4c3CCC4(C)C)nc12 (stereo not drawn) [Example 3, 2-(5,5-Dimethyl-6,7-dihydropyrrolo[1,2-c]imidazol-1-yl)-2-[7-methyl-6-(4-morpholinophenyl)-4-(trifluoromethyl)indazol-2-yl]-N-thiazol-2-yl-acetamide]
20 nM	Cc1c(-c2ccc(N3CCOCC3)cc2)cc(C(F)F)c2cn(C(C(=O)Nc3nccs3)c3ncn4c3CCC43CC3)nc12 (stereo not drawn) [Example 1, 2-[4-(Difluoromethyl)-7-methyl-6-(4-morpholinophenyl)indazol-2-yl]-2-spiro[6,7-dihydropyrrolo[1,2-c]imidazole-5,1′-cyclopropane]-1-yl-N-thiazol-2-yl-acetamide]
45 nM	Cc1c(-c2ccc(N3CCOCC3)cc2)cc(C(F)(F)F)c2cn(C(C(=O)Nc3nccs3)c3ncn4c3CCC43CC3)nc12 (stereo not drawn) [Example 2, 2-[7-Methyl-6-(4-morpholinophenyl)-4-(trifluoromethyl)indazol-2-yl]-2-spiro[6,7-dihydropyrrolo[1,2-c]imidazole-5,1′-cyclopropane]-1-yl-N-thiazol-2-yl-acetamide]
